# Publication PMC9081605, “A High-Throughput Toxicity Screen of 42 Per- and Polyfluoroalkyl Substances (PFAS) and Functional Assessment of Migration and Gene Expression in Human Placental Trophoblast Cells” (Frontiers in Toxicology, 2022)
# “Also recorded” adds a separate entry of the source.
# Tests used:
# Type in all cases: cell-based, human
# [1] = test system: JEG-3 cells; test: CellTiter-Glo luminescent cell viability assay (HTTS); conditions: for Viability ↑, lowest concentration at which the mean response value exceeded the mean control value ± 2*SD (rough binning): increase; for cell viability relative to vehicle control (rough binning): after 24 h, in at least one concentration; for Viability ↓, lowest concentration at which the mean response value exceeded the mean control value ± 2*SD (rough binning): decrease
# Description: (§1) JEG-3 human choriocarcinoma trophoblastic cells (American Type Culture Collection, VA, United States) were maintained in sterile-filtered Minimum Essential Media (MEM) supplemented with L-glutamine and phenol red (Thermo Fisher Scientific, MA, United States), 10% (v/v) heat-inactivated BenchMark Fetal Bovine Serum (Gemini Bio, CA, United States), 1% (v/v) sodium pyruvate (Thermo Fisher Scientific, MA, United States), and 1% (v/v) penicillin streptomycin (Sigma Aldrich, MO, United States). Cells were maintained in an incubator at 37°C with 5% CO2. JEG-3 cells were cultured in 10 cm tissue culture plates and cell passage numbers were recorded.
# (§2) A total of 42 perfluoroalkyl substances (PFAS) were evaluated (Supplementary Table S1 contains source and purity). PFAS stock solutions were maintained in 100% methanol as previous work has shown certain PFAS degrade when stored in dimethyl sulfoxide (DMSO; [Gaballah et al., 2020]). […] The vehicle control group consisted of 97.5% media + 2.5% methanol to match the concentration of methanol in the media at the highest PFAS concentration tested (500 µM). Menadione (50–500 µM) was used as a positive control for cytotoxicity assessment. PFAS were de-identified and assigned random numbers to eliminate bias. Chemical exposure plate maps were designed so that all experimental conditions were tested in at least technical duplicates per plate. The outer edges of each plate received media alone and were excluded from all analyses to avoid edge effects. Each plate map included 14 technical replicates of the vehicle control group and 14 technical replicates of media only. Biological replicates were defined as separate 384 well plates tested on separate days using different cell passages. The experimental workflow is depicted in Supplementary Figure S1.
# (§3) JEG-3 cells were counted using a Z2 Coulter Particle Counter (Beckman Coulter, CA, United States) and seeded at a density of 2,500 cells per well in black-walled, clear bottom 384 well plates (Corning, #3764) and allowed to adhere overnight. Approximately 24 h later, 384 well plates were imaged using an IncuCyte Zoom live cell imager (Essen BioScience Inc., MI, United States) to obtain baseline cellular confluence measurements prior to chemical dosing (0 h). Media was removed from wells and replaced with fresh media containing chemical treatments (exposure media) using a Viaflo liquid handling device (Integra Biosciences, NH, United States). Within 30 min of exposure media application, plates were again imaged for cellular confluence using the IncuCyte Zoom. Plates were incubated with exposure media for 24 h and then imaged again using the IncuCyte Zoom (24 h).
# In the same plate evaluated for mitochondrial membrane potential, cell viability measures were duplexed using the CellTiter-Glo (CTG) Luminescent Cell Viability Assay (Promega, WI, United States). CTG reagent was added to each well at a volume of 20 µl. The plate was left at room temperature to incubate for 5 min and then 20 µl from each well was transferred to a low-volume, round-bottom, white 384 well plate (Corning, NY, United States). The CTG reagent lyses cellular and mitochondrial membranes and binds to adenosine triphosphate (ATP) released by cells, which produces a luminescence signal. The intensity of the luminescence was considered a proxy measure for the number of live cells in a well. The luminescence intensities were measured using the CLARIOstar plate reader.
# HTTS data were analyzed using a custom data analysis script in R v 1.2.5019 ([R Core Team, 2019]). Briefly, raw data points corresponding to the confluence measurements at 0 and 24 h, the fluorescence intensities corresponding to MMP, and the relative luminescence units (RLU) corresponding to cell viability were imported directly from Microsoft Excel into the R programming environment, RStudio. Separate plates run on separate days using different JEG-3 passages were considered as biologic replicates. […]
# [2] = test system: JEG-3 cells; test: Proliferation, change in confluence 0-24 h (IncuCyte Zoom, HTTS); conditions: for Prolif ↓, lowest concentration at which the mean response value exceeded the mean control value ± 2*SD (rough binning): decrease; for cellular proliferation relative to vehicle control (rough binning): after 24 h, in at least one concentration; for minimal effective concentration: read-out: Prolif ↓, lowest concentration at which the mean response value exceeded the mean control value ± 2*SD (rough binning); for Prolif ↑, lowest concentration at which the mean response value exceeded the mean control value ± 2*SD (rough binning): increase
# Description: as §1, §2, §3
# Plate well bottom images were evaluated using automated cell masking. The automated cell masking program was developed using IncuCyte Zoom base software. Cell masking parameters were defined using a training set of JEG-3 cell images obtained prior to conducting the experiments and following IncuCyte Zoom software recommendations. Briefly, the training images were obtained from cell culture plates with varying levels of JEG-3 cellular confluence (ranging from ∼15% confluent to ∼95% confluent). Parameters for the automated cell masking were first manually set by an experimenter for 3-6 images of low (∼15–30%), medium (∼30–70%), and high confluence (∼70% or greater). The training images were then evaluated by the automated masking program and manually checked to ensure the parameters were sufficiently strict to ignore background (e.g., blank space on the plate well bottom) but adequately sensitive to detect cell borders. The masking program was then implemented on the experimental plates to obtain a baseline cellular confluence measurement at 0 h and a second confluence measurement at 24 h. […]
# [3] = test system: JEG-3 cells; test: Mitochondrial membrane potential, JC-10 assay (HTTS); conditions: for minimal effective concentration: read-out: MMP ↓, lowest concentration at which the mean response value exceeded the mean control value ± 2*SD (rough binning); for MMP relative to vehicle control (rough binning): after 24 h, in at least one concentration
# Description: as §1, §2, §3
# The JC-10 assay (Enzo Life Sciences, NY, United States) was used to evaluate mitochondrial membrane potential, the main bioenergetic parameter that regulates respiratory rate, ATP synthesis and reactive oxygen species generation. In cells with polarized mitochondrial membranes, the JC-10 dye localizes to the mitochondrial matrix and forms red fluorescent aggregates (540/590 nm). In cells with depolarized mitochondrial membranes, the JC-10 dye localizes in the cytoplasm and converts to a green fluorescent monomer (490/525 nm). Mitochondrial membrane potential was calculated as the ratio of the green and red fluorescence intensities within a well.
# At the end of the 24 h exposure period, exposure media was removed from the plate. The plate wells were then washed with 1x phosphate buffered saline (1x PBS). After washing, the JC-10 reagent was suspended in fresh 1x PBS and 20 µl was added to each well at a final concentration of 20 μM (Enzo Life Sciences, NY, United States). The plate was incubated for 1 h at 37°C, and the fluorescence intensities at excitation/emission wavelengths of 490/525 nm and 540/590 nm were measured using a CLARIOstar (BMG Labtech, Offenburg, Germany) plate reader, respectively.
# HTTS data were analyzed using a custom data analysis script in R v 1.2.5019 ([R Core Team, 2019]). […]
# [4] = JEG-3 cells, 24 h exposure, four-parameter fit, estimates meeting inclusion criteria, read-out: Proliferation EC50 ± SD
# [5] = JEG-3 cells, 24 h exposure, four-parameter fit, estimates meeting inclusion criteria, read-out: MMP EC50 ± SD
# [6] = Homo sapiens, JEG-3, 24 h, read-out: Viability EC50 ± SD, JEG-3 cells, 24 h exposure, four-parameter fit, estimates meeting inclusion criteria
# [7] = Homo sapiens, JEG-3, 24 h, read-out: Proliferation EC50 ± SD, JEG-3 cells, 24 h exposure, four-parameter fit, estimates meeting inclusion criteria
# [8] = Homo sapiens, JEG-3, 24 h, read-out: proliferation EC50 ± SE, JEG-3 cells, 24 h
# [9] = JEG-3 cells, raw model output including fits that did not meet inclusion criteria, read-out: Proliferation EC50 ± SD (raw values)
# [10] = JEG-3 cells, 24 h exposure, four-parameter fit, estimates meeting inclusion criteria, read-out: Viability EC50 ± SD
SMILES,cell viability relative to vehicle control (rough binning) [1],"EC50 [2, 4] [µM]",cellular proliferation relative to vehicle control (rough binning) [2],"EC50 [3, 5] [µM]","EC50 [1, 6] [µM]","minimal effective concentration ([2]; Homo sapiens, JEG-3, 24 h) [µM]","EC50 [2, 7] [µM]",MMP relative to vehicle control (rough binning) [3],"EC50 [1, 10] [µM]",other results
"Cc1ccc(S(=O)(=O)OCC(F)(F)C(F)(F)C(F)(F)C(F)(F)F)cc1 [1H,1H-Nonafluoropentyl p-toluenesulfonate]",increased cell viability,306 ± 47.9,reduced cellular proliferation,159 ± 17.7,–,–,–,–,–,"Viability ↑, lowest concentration at which the mean response value exceeded the mean control value ± 2*SD (rough binning) ([1]; JEG-3 cells, 24 h): 50 µM; Prolif ↓, lowest concentration at which the mean response value exceeded the mean control value ± 2*SD (rough binning) ([2]; JEG-3 cells, 24 h): 400 µM"
CCN(CC(=O)O)S(=O)(=O)C(F)(F)C(F)(F)C(F)(F)C(F)(F)C(F)(F)C(F)(F)C(F)(F)C(F)(F)F [2-(N-Ethylperfluorooctanesulfonamido)acetic acid],reduced cell viability,–,–,–,203 ± 44.7,250,204 ± 17.7,reduced MMP,–,"Viability ↓, lowest concentration at which the mean response value exceeded the mean control value ± 2*SD (rough binning) ([1]; JEG-3 cells, 24 h): 250 µM; EC50 [2, 8]: 204 ± 18 µM; Prolif ↑, lowest concentration at which the mean response value exceeded the mean control value ± 2*SD (rough binning) ([2]; JEG-3 cells, 24 h): 50 µM; minimal effective concentration ([3]; Homo sapiens, JEG-3, 24 h): 150 µM"
"O=C(O)CCC(F)(F)C(F)(F)C(F)(F)C(F)(F)C(F)(F)F [2H,2H,3H,3H-Perfluorooctanoic acid]",increased cell viability,–,increased cellular proliferation,–,–,–,–,–,–,"Prolif ↑, lowest concentration at which the mean response value exceeded the mean control value ± 2*SD (rough binning) ([2]; JEG-3 cells, 24 h): 50 µM; EC50 [2, 9]: 951 ± 671 µM; EC50 ([3]; JEG-3 cells, raw model output including fits that did not meet inclusion criteria, read-out: MMP EC50 ± SD (raw values)): 71780 ± 10 µM"
O=P(O)(OCCC(F)(F)C(F)(F)C(F)(F)C(F)(F)C(F)(F)C(F)(F)F)OCCC(F)(F)C(F)(F)C(F)(F)C(F)(F)C(F)(F)C(F)(F)F [6:2 Fluorotelomer phosphate diester],increased cell viability,–,reduced cellular proliferation; also recorded: increased cellular proliferation,–,–,188,142 ± 39.2,–,–,"Viability ↑, lowest concentration at which the mean response value exceeded the mean control value ± 2*SD (rough binning) ([1]; JEG-3 cells, 24 h): 112.5 µM; EC50 [2, 8]: 142 ± 39.4 µM; Prolif ↑, lowest concentration at which the mean response value exceeded the mean control value ± 2*SD (rough binning) ([2]; JEG-3 cells, 24 h): 37.5 µM; EC50 ([3]; Homo sapiens, JEG-3, read-out: MMP EC50 ± SD (raw values), JEG-3 cells, raw model output including fits that did not meet inclusion criteria): 64402 ± 10 µM"
O=P(O)(O)OCCC(F)(F)C(F)(F)C(F)(F)C(F)(F)C(F)(F)C(F)(F)F [6:2 Fluorotelomer phosphate monoester],–,193 ± 3.8,–,248 ± 62.1,–,–,–,–,183 ± 21.7,"EC50 ([1]; JEG-3 cells, 24 h, read-out: viability EC50 ± SE): 183 ± 22 µM; EC50 ([2]; JEG-3 cells, 24 h, read-out: proliferation EC50 ± SE): 193 ± 4 µM"
O=C(O)C(F)(F)C(F)(F)C(F)(F)C(F)(F)C(F)(F)C(F)(F)C(F)F [8-H-Perfluorooctanoic acid],–,441 ± 18.1,–,147 ± 27.1,–,–,–,–,318 ± 183,–
O=P(O)(OCCC(F)(F)C(F)(F)C(F)(F)C(F)(F)C(F)(F)C(F)(F)C(F)(F)C(F)(F)F)OCCC(F)(F)C(F)(F)C(F)(F)C(F)(F)C(F)(F)C(F)(F)C(F)(F)C(F)(F)F [8:2 Fluorotelomer phosphate diester],reduced cell viability,–,reduced cellular proliferation,–,–,–,–,reduced MMP,–,"Viability ↓, lowest concentration at which the mean response value exceeded the mean control value ± 2*SD (rough binning) ([1]; JEG-3 cells, 24 h): 50 µM; Prolif ↓, lowest concentration at which the mean response value exceeded the mean control value ± 2*SD (rough binning) ([2]; JEG-3 cells, 24 h): 100 µM; MMP ↓, lowest concentration at which the mean response value exceeded the mean control value ± 2*SD (rough binning) ([3]; JEG-3 cells, 24 h, decrease): 350 µM"
O=P(O)(O)OCCC(F)(F)C(F)(F)C(F)(F)C(F)(F)C(F)(F)C(F)(F)C(F)(F)C(F)(F)F [8:2 Fluorotelomer phosphate monoester],–,251 ± 37.6,–,312 ± 29.8,–,–,–,–,360 ± 30.3,–
O=S(=O)(O)CCC(F)(F)C(F)(F)C(F)(F)C(F)(F)C(F)(F)C(F)(F)C(F)(F)C(F)(F)F [8:2 Fluorotelomer sulfonic acid],–,–,–,–,160 ± 45.7,–,321 ± 171,–,–,"EC50 ([1]; Homo sapiens, JEG-3, 24 h, read-out: viability EC50 ± SE, JEG-3 cells, 24 h): 160 ± 46 µM; EC50 ([3]; Homo sapiens, JEG-3, 24 h, read-out: MMP EC50 ± SD, JEG-3 cells, 24 h exposure, four-parameter fit, estimates meeting inclusion criteria): 331 ± 5.7 µM"
O=C(O)C(F)(F)C(F)(F)C(F)(F)C(F)(F)C(F)(F)C(F)(F)C(F)(F)C(F)F [9-H-Perfluorononanoic acid],–,–,–,187 ± 27.6,–,–,–,–,350 ± 43.1,"EC50 [2, 9]: 1230 ± 118 µM"
"O=C(O)C(F)(F)OC(F)(F)C(F)(F)OC(F)(F)C(F)(F)OC(F)(F)F [Perfluoro-3,6,9-trioxadecanoic acid]",–,–,reduced cellular proliferation,–,267 ± 26.8,350,303 ± 30.1,reduced MMP,–,"minimal effective concentration ([3]; Homo sapiens, JEG-3, 24 h): 450 µM"
"O=C(O)C(F)(F)OC(F)(F)C(F)(F)OC(F)(F)C(F)(F)OC(F)(F)C(F)(F)C(F)(F)C(F)(F)F [Perfluoro-3,6,9-trioxatridecanoic acid]",reduced cell viability,–,reduced cellular proliferation,–,195 ± 54.6,400,332 ± 34.1,reduced MMP,–,"Viability ↓, lowest concentration at which the mean response value exceeded the mean control value ± 2*SD (rough binning) ([1]; JEG-3 cells, 24 h): 300 µM; minimal effective concentration ([3]; Homo sapiens, JEG-3, 24 h): 50 µM"
